Changes are numbered by the printed parent chain.
How the values were obtained:
hOGT (312-1031) [1] = molecular target: T1, hOGT (312-1031) (Homo sapiens, UniProt O15294, D564N); assay: surface plasmon resonance, […] equilibrium fit; format: binding
T1 sequence (O15294 322-1041 D564N): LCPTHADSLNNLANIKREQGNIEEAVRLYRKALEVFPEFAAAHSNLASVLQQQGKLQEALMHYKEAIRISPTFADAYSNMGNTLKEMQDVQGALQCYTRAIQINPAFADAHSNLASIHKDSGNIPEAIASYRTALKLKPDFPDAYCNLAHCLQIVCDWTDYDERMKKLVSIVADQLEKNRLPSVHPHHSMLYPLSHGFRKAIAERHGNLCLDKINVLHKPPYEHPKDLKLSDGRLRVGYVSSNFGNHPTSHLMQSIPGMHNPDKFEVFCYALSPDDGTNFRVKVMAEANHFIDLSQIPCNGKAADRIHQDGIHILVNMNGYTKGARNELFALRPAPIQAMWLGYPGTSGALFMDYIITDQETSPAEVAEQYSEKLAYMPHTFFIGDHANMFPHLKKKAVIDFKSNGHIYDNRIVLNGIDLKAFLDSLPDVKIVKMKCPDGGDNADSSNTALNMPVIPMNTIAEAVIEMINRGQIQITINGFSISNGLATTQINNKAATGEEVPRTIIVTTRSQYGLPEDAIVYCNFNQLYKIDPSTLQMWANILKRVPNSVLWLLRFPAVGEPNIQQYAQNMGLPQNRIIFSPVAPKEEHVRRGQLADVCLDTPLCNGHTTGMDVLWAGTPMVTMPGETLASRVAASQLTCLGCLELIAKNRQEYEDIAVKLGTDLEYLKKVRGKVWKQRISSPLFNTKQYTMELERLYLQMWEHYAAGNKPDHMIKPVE

hOGT (312-1031) [2] = molecular target: T2, hOGT (312-1031) (Homo sapiens, UniProt O15294, K852M); assay: surface plasmon resonance, […] equilibrium fit; format: binding
T2 sequence (O15294 322-1041 K852M): T1 sequence (O15294 322-1041 D564N) with N243D, K531M

hOGT (312-1031) [3] = molecular target: T3, hOGT (312-1031) (Homo sapiens, UniProt O15294, H568F); assay: surface plasmon resonance, […] equilibrium fit; format: binding
T3 sequence (O15294 322-1041 H568F): T1 sequence (O15294 322-1041 D564N) with N243D, H247F

hOGT (312-1031) [4] = molecular target: T4, hOGT (312-1031) (Homo sapiens, UniProt O15294); assay: surface plasmon resonance, […] equilibrium fit; format: binding
T4 sequence (O15294 322-1041): T1 sequence (O15294 322-1041 D564N) with N243D

hOGT (312-1031) [5] = molecular target: T4, hOGT (312-1031); assay: in vitro O-GlcNAc transfer inhibition; format: biochemical

| Kd (hOGT (312-1031) [1]) | Kd (hOGT (312-1031) [2]) | Kd (hOGT (312-1031) [3]) | Kd (hOGT (312-1031) [4]) | IC50 (hOGT (312-1031) [5]) | SMILES |
| --- | --- | --- | --- | --- | --- |
| 32.1 ± 0.3 µM | 4.7 ± 0.1 µM | 42.3 ± 0.4 µM | 16.1 ± 0.1 µM | – | CC(=O)N[C@H]1[C@@H](OP(=O)(O)OP(=O)(O)OC[C@H]2O[C@@H](n3ccc(=O)[nH]c3=O)[C@H](O)[C@@H]2O)O[C@H](CO)[C@@H](O)[C@@H]1O [UDP-GlcNAc] |
| – | 29.3 ± 0.1 µM | – | 12.1 ± 0.1 µM | – | O=C(N[C@H]1[C@@H](OP(=O)(O)OP(=O)(O)OC[C@H]2O[C@@H](n3ccc(=O)[nH]c3=O)[C@H](O)[C@@H]2O)O[C@H](CO)[C@@H](O)[C@@H]1O)C(F)(F)F [compound 2, UDP-GlcNAcF3] |
| – | 2.8 ± 0.1 µM | – | 11.3 ± 0.1 µM | 25 µM | CC(=O)N[C@H]1[C@@H](OP(=O)(O)O[P@](O)(=S)OC[C@H]2O[C@@H](n3ccc(=O)[nH]c3=O)[C@H](O)[C@@H]2O)O[C@H](CO)[C@@H](O)[C@@H]1O [compound 4, RP-αS-UDP-GlcNAc] |

More lines, now with the values behind:

| SMILES | Kd (hOGT (312-1031) [1]) | Kd (hOGT (312-1031) [2]) | Kd (hOGT (312-1031) [3]) | Kd (hOGT (312-1031) [4]) | IC50 (hOGT (312-1031) [5]) |
| --- | --- | --- | --- | --- | --- |
| O=c1ccn([C@@H]2O[C@H](COP(=O)(O)OP(=O)(O)O)[C@@H](O)[C@H]2O)c(=O)[nH]1 [UDP] | 0.6 ± 0.03 µM | – | 0.7 ± 0.1 µM | – | – |
| CC(=O)N[C@@H]1[C@@H](O)[C@H](O)[C@@H](CO)S[C@@H]1OP(=O)(O)OP(=O)(O)OC[C@H]1O[C@@H](n2ccc(=O)[nH]c2=O)[C@H](O)[C@@H]1O [compound 1, UDP-5S-GlcNAc] | – | 5.7 ± 0.1 µM | – | – | – |
